Experimental data from patent publication US7816358B2, “Pharmaceutical formulations comprising N,N′-disubstituted piperazine compounds” (Gruenenthal GmbH, priority 2001, dated 2010).

The molecules below were run on gabapentin binding site (assay: Gabapentin binding assay: displacement of [3H]-gabapentin from its binding site). Details: compound 10 μM in the test batch; [3H]-gabapentin 10 nM; homogenate 0.6 mg/ml protein; 40 minutes at room temperature.
Description: In the binding assay, the binding and affinities of the compounds according to the invention to the binding site—which is also hitherto still unknown in science—of gabapentin is investigated. The affinity of the compounds was measured via the displacement of gabapentin from its binding site.
The procedure for the measurement was as follows: Homogenate aliquots were thawed and diluted 20-fold with buffer 1, resuspended and then centrifuged at 110,000×g for 20 minutes. The pellet was resuspended with buffer 2 (10 mM HEPES, 0.05% NaN3, 1 tablet of Complete (Roche Diagnostics) per 100 ml, 0.004% Structol, pH 7.4) and adjusted to a protein concentration of 0.6 mg/ml. 225 μl of homogenate, 20 μl of [^3H]-gabapentin (76 Ci/mmol) in buffer 2, corresponding to a concentration of 10 nM in the test batch, and 5 μl of a compound according to the invention (dissolved in 25% DMSO in water) with a concentration of 10 μM in the test batch were incubated on a shaking machine for 40 minutes at room temperature in 96-well microtiter plates (polypropylene, Costar) and the incubated mixture was then filtered with suction on 96-well Unifilter plates with GF/B filters (Whatman) using a harvester (Robotic Harvester 9600, Brandel). The filter plates were preswollen for 40 minutes in buffer 3 (50 mM Tris, 0.5% PEI, pH 7.4) before the filtering step. The filter plates were washed three times with wash buffer (0.1 M NaCl with 0.05 NaN3) after the filtering step in order to remove non-bound radioligand, and then dried in a drying cabinet at 55° C. After a cooling phase of 15 minutes, 35 μl of scintillator (Ultima Gold MV, Packard) were added per well and the radioactivity on the filters was then determined in a β-counter (Trilux Microbeta, Wallac).

Compound | Gabapentin [%] inhibition [%]
CN1CCN(CC2CCCCCC2(O)Cc2ccc(Cl)cc2Cl)CC1 (stereo not drawn) [1-(2,4-Dichloro-benzyl)-2-(4-methyl-piperazin-1-ylmethyl)-cycloheptanol] | 48
CN1CCN(CC2CCCCCCC2(O)Cc2ccc(Cl)cc2Cl)CC1 (stereo not drawn) [1-(2,4-Dichloro-benzyl)-2-(4-methyl-piperazin-1-ylmethyl)-cyclooctanol] | 48
CN1CCN(CC2CCCCCCC2(O)Cc2c(F)cccc2Cl)CC1 (stereo not drawn) [1-(2-Chloro-6-fluoro-benzyl)-2-(4-methyl-piperazin-1-ylmethyl)-cyclooctanol] | 60
CN1CCN(CC2CCCCCC2(O)Cc2c(F)cccc2Cl)CC1 (stereo not drawn) [1-(2-Chloro-6-fluoro-benzyl)-2-(4-methyl-piperzazin-1-ylmethyl)-cycloheptanol] | 82
CN1CCN(CC2CCCCCC2(O)Cc2ccccc2Cl)CC1 (stereo not drawn) [1-(2-Chloro-benzyl)-2-(4-methyl-piperazin-1-ylmethyl)-cycloheptanol] | 74
CN1CCN(CC2CCCCCCC2(O)Cc2ccccc2Cl)CC1 (stereo not drawn) [1-(2-Chloro-benzyl)-2-(4-methyl-piperazin-1-ylmethyl)-cyclooctanol] | 61
CN1CCN(CC2CCCCCCCCCCC2(O)Cc2cccc(F)c2)CC1 (stereo not drawn) [1-(3-Fluoro-benzyl)-2-(4-methyl-piperazin-1-ylmeethyl)-cyclododecanol] | 45
CN1CCN(CC2CCCCCC2(O)Cc2cccc(F)c2)CC1 (stereo not drawn) [1-(3-Fluoro-benzyl)-2-(4-methyl-piperazin-1-ylmethyl)-cycloheptanol] | 44
CN1CCN(CC2CCCCCCC2(O)Cc2cccc(F)c2)CC1 (stereo not drawn) [1-(3-Fluoro-benzyl)-2-(4-methyl-piperazin-1-ylmethyl)-cyclooctanol] | 42
CN1CCN(CC2CCCCCCC2(O)Cc2ccc(F)cc2)CC1 (stereo not drawn) [1-(4-Fluoro-benzyl)-2-(4-methyl-piperazin-1-ylmethyl)-cyclooctanol] | 39
CN1CCN(CC2CCCCCCCCCCC2(O)Cc2ccccc2)CC1 (stereo not drawn) [1-Benzyl-2-(4-methyl-piperazin-1-ylmethyl)-cyclododecanol] | 56
C=CC1(O)CCCCCCCCCCC1CN1CCN(C)CC1 (stereo not drawn) [2-(4-Methyl-piperazin-1-ylmethyl)-1-vinyl-cyclododecanol] | 49
